Experimental data published in the supplement of paper PMC11208160.

assay: recombinant UMI read abundance after kanamycin selection (control-corrected) (log10(CPM+1)); higher = more efficient recombination; extreme values may be limits of the assay; sequences stand for … in AGTGCAGAGAAAATCGGCCAGTTTTCTCTGCCTGCAGTCCGCATGCCGTGGGACCCCTTGGGTTCTAACCTGTTGCCTAGATTTATGCAGCGGACTGCCTTTCTCCCAAAGTGATAAACCGG…AGGTTGGTTTCACT; site = the 11-nt donor
Procedure, shortened: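 Sequenced counts of recombinant UMIs were turned into CPM, averaged across replicates and scaled with control-derived factors. The reported figure is log10(CPM+1). Those UMIs, each 12 nt long, tagged donor and donor-binding-loop pairs on a plasmid with a promoterless kanamycin gene, screened as a pool in Escherichia coli with IPTG (0.07 mM) plus kanamycin or without selection.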
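Also: IS621 bridge recombinase in Escherichia coli cells against a fixed T5 target plasmid.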

Sequence	recombinant UMI read abundance (log10)
CTAGTATCATGGACCGGTTTTCCCGGTAATCCGTATTTGAC (site CTACTATCTGT)	0.925
CTAGTATCATGGACCGGTTTTCCCGGTAATCCGTATTTGAC (site CTACTATCTTT)	0.0334
CTAGTATCATGGACCGGTTTTCCCGGTAATCCGTATTTGAC (site CTACTTTCTGT)	0
CTAGTATCATGGACCGGTTTTCCCGGTAATCCGTATTTGAC (site CTAGAAACTGT)	0
CTAGTATCATGGACCGGTTTTCCCGGTAATCCGTATTTGAC (site CTAGAATCTCT)	0
CTAGTATCATGGACCGGTTTTCCCGGTAATCCGTATTTGAC (site CTAGAATCTGA)	0
CTAGTATCATGGACCGGTTTTCCCGGTAATCCGTATTTGAC (site CTAGAATCTGT)	0.992
CTAGTATCATGGACCGGTTTTCCCGGTAATCCGTATTTGAC (site CTAGACTCTGT)	0
CTAGTATCATGGACCGGTTTTCCCGGTAATCCGTATTTGAC (site CTAGCAGCTGT)	0
CTAGTATCATGGACCGGTTTTCCCGGTAATCCGTATTTGAC (site CTAGCATCTGG)	0
CTAGTATCATGGACCGGTTTTCCCGGTAATCCGTATTTGAC (site CTAGCATCTGT)	1.59
CTAGTATCATGGACCGGTTTTCCCGGTAATCCGTATTTGAC (site CTAGCATCTTT)	0.0133
CTAGTATCATGGACCGGTTTTCCCGGTAATCCGTATTTGAC (site CTAGCTTCTGT)	0
CTAGTATCATGGACCGGTTTTCCCGGTAATCCGTATTTGAC (site CTAGGACCTGT)	0
CTAGTATCATGGACCGGTTTTCCCGGTAATCCGTATTTGAC (site CTAGGATCTAT)	0.00421
CTAGTATCATGGACCGGTTTTCCCGGTAATCCGTATTTGAC (site CTAGGATCTGC)	0
CTAGTATCATGGACCGGTTTTCCCGGTAATCCGTATTTGAC (site CTAGGATCTGT)	0.927
CTAGTATCATGGACCGGTTTTCCCGGTAATCCGTATTTGAC (site CTAGGGTCTGT)	0
CTAGTATCATGGACCGGTTTTCCCGGTAATCCGTATTTGAC (site CTAGTAACTCT)	0.0077
CTAGTATCATGGACCGGTTTTCCCGGTAATCCGTATTTGAC (site CTAGTAACTGA)	0
CTAGTATCATGGACCGGTTTTCCCGGTAATCCGTATTTGAC (site CTAGTAACTGT)	1.82
CTAGTATCATGGACCGGTTTTCCCGGTAATCCGTATTTGAC (site CTAGTACCTAT)	0.00604
CTAGTATCATGGACCGGTTTTCCCGGTAATCCGTATTTGAC (site CTAGTACCTGC)	0

Sequence	recombinant UMI read abundance (log10)
CTAGTATCATGGACCGGTTTTCCCGGTAATCCGTATTTGAC (site CTAGTACCTGT)	0
CTAGTATCATGGACCGGTTTTCCCGGTAATCCGTATTTGAC (site CTAGTAGCTGG)	0
CTAGTATCATGGACCGGTTTTCCCGGTAATCCGTATTTGAC (site CTAGTAGCTGT)	0
CTAGTATCATGGACCGGTTTTCCCGGTAATCCGTATTTGAC (site CTAGTAGCTTT)	0.0305
CTAGTATCATGGACCGGTTTTCCCGGTAATCCGTATTTGAC (site CTAGTATCTAC)	0.564
CTAGTATCATGGACCGGTTTTCCCGGTAATCCGTATTTGAC (site CTAGTATCTAT)	2.78
CTAGTATCATGGACCGGTTTTCCCGGTAATCCGTATTTGAC (site CTAGTATCTCA)	0.333
CTAGTATCATGGACCGGTTTTCCCGGTAATCCGTATTTGAC (site CTAGTATCTCT)	1.67
CTAGTATCATGGACCGGTTTTCCCGGTAATCCGTATTTGAC (site CTAGTATCTGA)	1.14
CTAGTATCATGGACCGGTTTTCCCGGTAATCCGTATTTGAC (site CTAGTATCTGC)	2.62
CTAGTATCATGGACCGGTTTTCCCGGTAATCCGTATTTGAC (site CTAGTATCTGG)	1.48
CTAGTATCATGGACCGGTTTTCCCGGTAATCCGTATTTGAC (site CTAGTATCTGT)	2.66
CTAGTATCATGGACCGGTTTTCCCGGTAATCCGTATTTGAC (site CTAGTATCTTG)	0.0198
CTAGTATCATGGACCGGTTTTCCCGGTAATCCGTATTTGAC (site CTAGTATCTTT)	2.1
CTAGTATCATGGACCGGTTTTCCCGGTAATCCGTATTTGAC (site CTAGTCACTGT)	0
CTAGTATCATGGACCGGTTTTCCCGGTAATCCGTATTTGAC (site CTAGTCTCTCT)	0.0131
CTAGTATCATGGACCGGTTTTCCCGGTAATCCGTATTTGAC (site CTAGTCTCTGA)	0
CTAGTATCATGGACCGGTTTTCCCGGTAATCCGTATTTGAC (site CTAGTCTCTGT)	1.18
CTAGTATCATGGACCGGTTTTCCCGGTAATCCGTATTTGAC (site CTAGTGCCTGT)	0
CTAGTATCATGGACCGGTTTTCCCGGTAATCCGTATTTGAC (site CTAGTGTCTAT)	0.00843
CTAGTATCATGGACCGGTTTTCCCGGTAATCCGTATTTGAC (site CTAGTGTCTGC)	0
CTAGTATCATGGACCGGTTTTCCCGGTAATCCGTATTTGAC (site CTAGTGTCTGT)	2.01
CTAGTATCATGGACCGGTTTTCCCGGTAATCCGTATTTGAC (site CTAGTTGCTGT)	0

Sequence	recombinant UMI read abundance (log10)
CTAGTATCATGGACCGGTTTTCCCGGTAATCCGTATTTGAC (site CTAGTTTCTGG)	0
CTAGTATCATGGACCGGTTTTCCCGGTAATCCGTATTTGAC (site CTAGTTTCTGT)	0
CTAGTATCATGGACCGGTTTTCCCGGTAATCCGTATTTGAC (site CTAGTTTCTTT)	0
CTAGTATCATGGACCGGTTTTCCCGGTAATCCGTATTTGAC (site CTATGATCTGT)	0
CTAGTATCATGGACCGGTTTTCCCGGTAATCCGTATTTGAC (site CTATTACCTGT)	0
CTAGTATCATGGACCGGTTTTCCCGGTAATCCGTATTTGAC (site CTATTATCTAT)	0
CTAGTATCATGGACCGGTTTTCCCGGTAATCCGTATTTGAC (site CTATTATCTGC)	0
CTAGTATCATGGACCGGTTTTCCCGGTAATCCGTATTTGAC (site CTATTATCTGT)	0.701
CTAGTATCATGGACCGGTTTTCCCGGTAATCCGTATTTGAC (site CTATTGTCTGT)	0
CTAGTATCATGGACCGGTTTTCCCGGTAATCCGTATTTGAC (site CTCATATCTGT)	0.632
CTAGTATCATGGACCGGTTTTCCCGGTAATCCGTATTTGAC (site CTCGAATCTGT)	0
CTAGTATCATGGACCGGTTTTCCCGGTAATCCGTATTTGAC (site CTCGTAACTGT)	0
CTAGTATCATGGACCGGTTTTCCCGGTAATCCGTATTTGAC (site CTCGTATCTCT)	0.007
CTAGTATCATGGACCGGTTTTCCCGGTAATCCGTATTTGAC (site CTCGTATCTGA)	0
CTAGTATCATGGACCGGTTTTCCCGGTAATCCGTATTTGAC (site CTCGTATCTGT)	0.0723
CTAGTATCATGGACCGGTTTTCCCGGTAATCCGTATTTGAC (site CTCGTCTCTGT)	0
CTAGTATCATGGACCGGTTTTCCCGGTAATCCGTATTTGAC (site CTGCTATCTGT)	0
CTAGTATCATGGACCGGTTTTCCCGGTAATCCGTATTTGAC (site CTGGCATCTGT)	0
CTAGTATCATGGACCGGTTTTCCCGGTAATCCGTATTTGAC (site CTGGTAGCTGT)	0
CTAGTATCATGGACCGGTTTTCCCGGTAATCCGTATTTGAC (site CTGGTATCTGG)	0
CTAGTATCATGGACCGGTTTTCCCGGTAATCCGTATTTGAC (site CTGGTATCTGT)	0
CTAGTATCATGGACCGGTTTTCCCGGTAATCCGTATTTGAC (site CTGGTATCTTT)	0.0145
